Experiment: mn = molality of the nth substance listed, in mol/kg
Details: 101.3 kPa, Liquid; for speed of sound: Frequency=2 MHz, Linear variable-path acoustic interferometer; for mass density: Pycnometric method

CCN(CC)CCOC(=O)c1ccc(N)cc1.Cl [2-diethylaminoethyl p-aminobenzoate hydrochloride] + O
Details | mass density [kg/m3] | speed of sound [m/s]
288.15 K, m1 = 0.01 | 999.6 | 1467.5
288.15 K, m1 = 0.02 | 1000.1 | 1469.1
288.15 K, m1 = 0.0301 | 1000.6 | 1470.7
288.15 K, m1 = 0.04 | 1001.1 | 1472.3
288.15 K, m1 = 0.05 | 1001.6 | 1473.9
288.15 K, m1 = 0.055 | 1001.85 | 1474.7
288.15 K, m1 = 0.0599 | 1002.09 | 1475.4
288.15 K, m1 = 0.065 | 1002.34 | 1476.2
288.15 K, m1 = 0.0701 | 1002.6 | 1477
288.15 K, m1 = 0.0751 | 1002.85 | 1477.7
288.15 K, m1 = 0.0801 | 1003.1 | 1478.5
288.15 K, m1 = 0.0852 | 1003.35 | 1479.2
288.15 K, m1 = 0.0898 | 1003.58 | 1480
288.15 K, m1 = 0.0952 | 1003.85 | 1480.7
288.15 K, m1 = 0.1 | 1004.09 | 1481.4
298.15 K, m1 = 0.0098 | 997.52 | 1498.3
298.15 K, m1 = 0.0196 | 997.99 | 1499.9
298.15 K, m1 = 0.0297 | 998.49 | 1501.5
298.15 K, m1 = 0.0406 | 999.02 | 1503.2
298.15 K, m1 = 0.0492 | 999.44 | 1504.6
298.15 K, m1 = 0.0534 | 999.65 | 1505.3
298.15 K, m1 = 0.061 | 1000.02 | 1506.5
298.15 K, m1 = 0.0636 | 1000.15 | 1506.9
298.15 K, m1 = 0.0688 | 1000.4 | 1507.7
298.15 K, m1 = 0.0758 | 1000.74 | 1508.8
298.15 K, m1 = 0.0783 | 1000.86 | 1509.2
298.15 K, m1 = 0.0846 | 1001.17 | 1510.2
298.15 K, m1 = 0.09 | 1001.44 | 1511
298.15 K, m1 = 0.0951 | 1001.68 | 1511.7
298.15 K, m1 = 0.1003 | 1001.94 | 1512.5
308.15 K, m1 = 0.01 | 994.51 | 1521.4
308.15 K, m1 = 0.02 | 995 | 1523
308.15 K, m1 = 0.03 | 995.48 | 1524.6
308.15 K, m1 = 0.0401 | 995.97 | 1526.2
308.15 K, m1 = 0.0499 | 996.44 | 1527.8
308.15 K, m1 = 0.055 | 996.69 | 1528.6
308.15 K, m1 = 0.06 | 996.93 | 1529.4
308.15 K, m1 = 0.065 | 997.17 | 1530.1
308.15 K, m1 = 0.0698 | 997.4 | 1530.9
308.15 K, m1 = 0.075 | 997.65 | 1531.7
308.15 K, m1 = 0.0801 | 997.9 | 1532.5
308.15 K, m1 = 0.085 | 998.14 | 1533.2
308.15 K, m1 = 0.09 | 998.38 | 1534
308.15 K, m1 = 0.095 | 998.62 | 1534.7
308.15 K, m1 = 0.1 | 998.86 | 1535.4

[Cl-].[K+] [potassium chloride] + O
Details | mass density, 288.15 K [kg/m3] | mass density, 298.15 K [kg/m3] | mass density, 308.15 K [kg/m3] | speed of sound, 288.15 K [m/s] | speed of sound, 298.15 K [m/s] | speed of sound, 308.15 K [m/s]
m1 = 0.06 | 1002.26 | 1000.42 | 997.25 | 1467.4 | 1498.3 | 1522.2
m1 = 0.1 | 1003.48 | 1001.79 | 998.71 | 1469.6 | 1502.5 | 1525.1

— the NIST ThermoML archive (doi:10.1016/j.jct.2017.04.015)
